Results as given in PubChem BioAssay AID330 (DTP/NCI, 2004).
Where “and” joins values, the source holds several entries; their conditions need not be identical. Equal values may be shown once. Inconclusive results and toxic doses are left out. How the source made its calls: active means survival T/C of 150% or more; inactive means T/C below 125% in these data.

Test system: P388 leukemia ip, CD2F1 mice, survival T/C
Test: NCI In Vivo Anticancer Drug Screen. Data for tumor model P388 Leukemia (intraperitoneal) in CD2F1 (CDF1) mice
Conditions: higher = longer survival
Method in brief: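 Mice carrying the transplanted tumor received test compound or vehicle. Survival was recorded in each group, and the value is the treated-group measurement divided by that of the vehicle-treated control group.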

[1] = endpoint: median survival time, dose: 50.0 mg/kg/injection, schedule: Q01DX009 (ip), vehicle: Klucel (hydroxypropylcellulose) (HPC)
[2] = endpoint: median survival time, dose: 100.0 mg/kg/injection, schedule: Q01DX009 (ip), vehicle: Klucel (hydroxypropylcellulose) (HPC)
[3] = endpoint: median survival time, dose: 12.5 mg/kg/injection, schedule: Q01DX009 (ip), vehicle: saline with Tween-80
[4] = endpoint: median survival time, dose: 25.0 mg/kg/injection, schedule: Q01DX009 (ip), vehicle: saline with Tween-80
[5] = endpoint: median survival time, dose: 50.0 mg/kg/injection, schedule: Q01DX009 (ip), vehicle: saline with Tween-80
[6] = endpoint: median survival time, dose: 60.0 mg/kg/injection, schedule: Q01DX005 (ip), vehicle: saline with Tween-80
[7] = endpoint: median survival time, dose: 120.0 mg/kg/injection, schedule: Q01DX005 (ip), vehicle: saline with Tween-80
[8] = endpoint: median survival time, dose: 240.0 mg/kg/injection, schedule: Q01DX005 (ip), vehicle: saline with Tween-80

Measured: T/C

O=S(=O)(O)c1ccc(-c2ccc(S(=O)(=O)O)cc2)cc1 (tested in a mixture with another compound)
active: endpoint: mean survival time, dose: 20.0 mg/kg/injection, schedule: Q01DX009 (ip), vehicle: saline 253 % of control | endpoint: mean survival time, dose: 40.0 mg/kg/injection, schedule: Q01DX009 (ip), vehicle: saline 232 % of control | endpoint: median survival time, dose: 12.5 mg/kg/injection, schedule: Q01DX009 (ip), vehicle: saline sonified 154 % of control | endpoint: median survival time, dose: 20.0 mg/kg/injection, schedule: Q01DX009 (ip), vehicle: saline 231 % of control | endpoint: median survival time, dose: 25.0 mg/kg/injection, schedule: Q01DX009 (ip), vehicle: saline sonified 150 % of control | endpoint: median survival time, dose: 33.0 mg/kg/injection, schedule: Q04DX003 (ip), vehicle: saline 165 % of control | endpoint: median survival time, dose: 40.0 mg/kg/injection, schedule: Q01DX009 (ip), vehicle: saline 272 % of control | endpoint: median survival time, dose: 50.0 mg/kg/injection, schedule: Q01DX009 (ip), vehicle: saline sonified 272 % of control | endpoint: median survival time, dose: 50.0 mg/kg/injection, schedule: Q04DX003 (ip), vehicle: saline sonified 181 % of control | endpoint: median survival time, dose: 50.0 mg/kg/injection, schedule: Q04DX003 (ip), vehicle: saline 169 % of control | endpoint: median survival time, dose: 75.0 mg/kg/injection, schedule: Q04DX003 (ip), vehicle: saline 221 % of control

O=C1CC2(CCCC2)C(=O)N1c1ccc(N2C(=O)CC3(CCCC3)C2=O)cc1
inactive: [1] 96 % of control | [2] 99 % of control | endpoint: median survival time, dose: 200.0 mg/kg/injection, schedule: Q01DX009 (ip), vehicle: Klucel (hydroxypropylcellulose) (HPC) 96 % of control

S=c1sc2cccnc2s1
inactive: [3] 99 % of control | [4] 100 % of control | [5] 104 % of control and 111 % of control

COc1ccc(-c2c[s+]cs2)cc1
inactive: endpoint: median survival time, dose: 6.25 mg/kg/injection, schedule: Q01DX009 (ip), vehicle: distilled water + Tween-80 103 % of control | endpoint: median survival time, dose: 12.5 mg/kg/injection, schedule: Q01DX009 (ip), vehicle: distilled water + Tween-80 112 % of control | endpoint: median survival time, dose: 25.0 mg/kg/injection, schedule: Q01DX009 (ip), vehicle: distilled water + Tween-80 100 % of control | endpoint: median survival time, dose: 50.0 mg/kg/injection, schedule: Q01DX009 (ip), vehicle: distilled water + Tween-80 116 % of control | endpoint: median survival time, dose: 100.0 mg/kg/injection, schedule: Q01DX009 (ip), vehicle: distilled water + Tween-80 109 % of control | endpoint: median survival time, dose: 200.0 mg/kg/injection, schedule: Q01DX009 (ip), vehicle: distilled water + Tween-80 93 % of control

CO[C@H]1/C=C/O[C@@]2(C)Oc3c(C)c(O)c4c(O)c(c(/C=N/N5C(C)CN(Cc6ccccc6)CC5C)c(O)c4c3C2=O)NC(=O)/C(C)=C\C=C\[C@H](C)[C@H](O)[C@@H](C)[C@@H](O)[C@@H](C)[C@H](OC(C)=O)[C@@H]1C (stereo partly drawn)
inactive: endpoint: median survival time, dose: 100.0 mg/kg/injection, schedule: Q01DX009 (ip), vehicle: saline sonified 90 % of control | endpoint: median survival time, dose: 200.0 mg/kg/injection, schedule: Q01DX009 (ip), vehicle: saline sonified 95 % of control

CC(N)C12CC3CC(CC(C3)C1)C2 (stereo not drawn)
inactive: endpoint: median survival time, dose: 25.0 mg/kg/injection, schedule: Q04DX002 (ip), vehicle: saline 108 % of control | endpoint: median survival time, dose: 50.0 mg/kg/injection, schedule: Q04DX002 (ip), vehicle: saline 100 % of control | endpoint: median survival time, dose: 100.0 mg/kg/injection, schedule: Q04DX002 (ip), vehicle: saline 100 % of control | endpoint: median survival time, dose: 100.0 mg/kg/injection, schedule: Q04DX002 (ip), vehicle: suspension in saline 101 % of control

[Cl][Sn]([Cl])([c]1ccccc1)[c]1ccccc1.c1ccncc1.c1ccncc1
active: endpoint: median survival time, dose: 3.12 mg/kg/injection, schedule: Q01DX009 (ip), vehicle: saline 150 % of control | endpoint: median survival time, dose: 6.25 mg/kg/injection, schedule: Q01DX009 (ip), vehicle: Klucel (hydroxypropylcellulose) (HPC) 153 % of control and 166 % of control | endpoint: median survival time, dose: 6.25 mg/kg/injection, schedule: Q01DX009 (ip), vehicle: saline 156 % of control | endpoint: median survival time, dose: 12.5 mg/kg/injection, schedule: Q01DX009 (ip), vehicle: Klucel (hydroxypropylcellulose) (HPC) 155 % of control and 180 % of control | [3] 151 % of control

CC1C(=O)OC(C(Cl)(Cl)Cl)N1C (stereo not drawn)
inactive: [6] 97 % of control | [7] 97 % of control | [8] 94 % of control

COc1ccc(C(=O)CCc2c(-c3ccccc3)[nH]c3ccccc23)c(O)c1
inactive: [6] 107 % of control | [7] 100 % of control | [8] 97 % of control

CCOCN(COCC)c1ccccn1
inactive: [4] 100 % of control | [5] 105 % of control and 116 % of control

Cc1cc(Nc2ccc(N(C)C)cc2)c2ccc(N(C)C)cc2n1
inactive: endpoint: median survival time, dose: 100.0 mg/kg/injection, schedule: Q04DX002 (ip), vehicle: acid diluted with saline 95 % of control | endpoint: median survival time, dose: 200.0 mg/kg/injection, schedule: Q04DX002 (ip), vehicle: acid diluted with saline 103 % of control | endpoint: median survival time, dose: 400.0 mg/kg/injection, schedule: Q04DX002 (ip), vehicle: acid diluted with saline 96 % of control

O=C1C(Sc2ccccc2)CCCC1Sc1ccccc1 (stereo not drawn)
inactive: endpoint: median survival time, dose: 25.0 mg/kg/injection, schedule: Q01DX009 (ip), vehicle: Klucel (hydroxypropylcellulose) (HPC) 109 % of control | [1] 100 % of control | [2] 98 % of control
